# Test results reported in patent US5002969A, “Pharmaceutical compositions containing titanocene complexes and use of these complexes as cytostatic agents” (priority 1985, dated 1991).
# Assays:
# Ehrlich ascites tumor = test: Activity against Ehrlich Ascites Tumor; assay type: in vivo, Female CF1 mice; settings: single i.p. dose, 24 h after tumor inoculation
# Procedure: Female CF1 mice are each given about 6×10^6 Ehrlich ascites tumor cells by means of intraperitoneal injection and, 24 hours later, a single intraperitoneal dose of substance dose range of 20 to 500 mg/kg) in physiological saline solution (0.4 ml). In each case 5 to 10 animals are tested per dose. If appropriate, the preparation can be buffered to a pH of 4 to 7, for example with sodium bicarbonate or tris-(hydroxymethyl)-aminomethane, in order to avoid local irritation at the injection site. A group of untreated control animals which were injected intraperitoneally with 0.4 ml of physiological saline solution without administration of the substance is also run for each test series.
# The tumor development in the individual dose ranges is evaluated by means of the weight course and survival time. The dose-dependent number of tumor deaths, toxicity deaths and surviving, and the associated percentage increase in the average survival time are determined for each substance.
# ascitic Sarcoma 180 = test: Activity against ascitic Sarcoma 180; assay type: in vivo, female NMRI mice; settings: for MST (mean survival time): mean (range); for Survivors/Animals Treated: day 80
# Source text: Each animal obtained about 10^7 tumor cells.
# Every day occuring deaths were noted.
# B16 Melanoma = test: Activity against B16 Melanoma; assay type: in vivo, female B6 D2 F1 mice; settings: day 10
# Procedure: (§1) The B16 melanoma and colon 38 carcinoma used were obtained from the NCI Liasion Office, Institut Jules Bordet, Brussels, Belgium and, for propagation, were kept as solid, subcutaneously growing tumor lines on male C57BL/6J mice. For testing, the tumors were transplanted to female B6 D2 F1 mice. All animals were kept under standard conditions (22°-23° C., tap water and altromin food ad libitum, 12-h light-dark rhythm).
# (§2) For tumor transplantation on day 0 of the testing experiments, solid tumors were removed from donor mice, minced with scissors and reduced to small particles. After suspension in twofold volumes of Hank's balanced salt solution, volumes of 0.3 ml were inoculated subcutaneously into the axillary region, resulting in the growth of solitary solid tumors.
# (§3) The test compounds were administered either as a single injection on day 1 or as three injections on days 1, 3 and 5, or as five injections on days 1, 3, 5, 7 and 9. The different doses applied and the animal distribution are recorded in table 4. The substances, dissolved or suspended in a DMSO-saline mixture (1/9=v/v), were always injected intraperitoneally. The concentrations were selected in such a manner that each mouse received a total volume of 0.4 to 0.5 ml. Control animals only obtained one, three or five injections of the DMSO-saline mixture (0.5 ml/animal) without drug addition.
# (§4) The number of deaths was recorded daily. Deaths occuring within 7 days (single injection), 11 days (three injections) or 15 days (five injections) after tumor transplantation were defined as deaths due to substance toxicity.
# (§5) In the case of B16 melonoma, the tumors were removed and weighed on day 10 for the single and three injections or on day 15 for the five injections. Colon 38 carcinomas were always evaluated on day 15 of the experiment.
# Colon 38 Carcinoma = test: Activity against Colon 38 Carcinoma; assay type: in vivo, female B6 D2 F1 mice; settings: day 15
# Procedure: as §1, §2, §3, §4, §5
# solid Sarcoma 180 = test: Activity against solid Sarcoma 180; settings: for T/C / Tumor Weight: day 9; for Tumor Weight: mean ± SD
# Rectum Adenocarcinoma = test: Activity against heterotransplanted human rectum adenocarcinoma; assay type: in vivo; settings: day 25
# Procedure: (§6) The same testing procedure as in the tests with B16 melanoma and colon 38 carcinoma was employed. The test compounds were applied in equivalent and equitoxic doses, subdivided into five injections. The first injection was administered on day 8 (mammary carcinoma), day 10 (adenocarcinoma of rectum and lung) and day 26 (small cell lung carcinoma) of the tumor transplantation. The T/C values were determined 3 days after the last substance injection, i.e., on day 23 (mammary carcinoma), day 25 (adenocarcinoma of rectum and lung) and day 41 (small cell lung carcinoma).
# Lung Adenocarcinoma = test: Activity against heterotransplanted human lung adenocarcinoma; assay type: in vivo; settings: day 25
# Procedure: as §6
# [1] = tested on: Lung Small Cell Carcinoma; test: Activity against heterotransplanted human small cell lung carcinoma; assay type: in vivo; settings: day 41
# Procedure: as §6
# Mammary Carcinoma = test: Activity against heterotransplanted human mammary carcinoma; assay type: in vivo, human tumor xenograft tumor xenograft tumor xenograft; settings: day 23
# Procedure: as §6
compound,measurement,setting,value
"O=C([O][Ti+2][O]C(=O)C(Cl)(Cl)Cl)C(Cl)(Cl)Cl.c1cc[cH-]c1.c1cc[cH-]c1 [Compound 4, Bis(trichloroacetato)bis(.eta.^5 -cyclopentadienyl)titanium(IV)]",Optimal Treating Rate,Ehrlich ascites tumor,100%
same,Therapeutic Index (LD50/ED90),Ehrlich ascites tumor,"5,5"
same,ILS (increase in life span),ascitic Sarcoma 180; 1 × 220 mg/kg,4%
same,MST (mean survival time),ascitic Sarcoma 180; 1 × 220 mg/kg,"17,2 (15-20) d"
same,ILS (increase in life span),ascitic Sarcoma 180; 1 × 320 mg/kg,96%
same,Survivors/Animals Treated,ascitic Sarcoma 180; 1 × 320 mg/kg,1/5
same,MST (mean survival time),ascitic Sarcoma 180; 1 × 320 mg/kg,"32,4 (18-80) d"
same,T/C,B16 Melanoma; 1 × 320 mg/kg i.p.,85%
same,T/C,B16 Melanoma; 3 × 300 mg/kg i.p.,41%
same,T/C,Colon 38 Carcinoma; 1 × 320 mg/kg i.p.,48%
same,T/C,solid Sarcoma 180; 1 × 220 mg/kg,96%
same,Tumor Weight,solid Sarcoma 180; 1 × 220 mg/kg,"1,14 ± 0,26 g"
same,T/C,solid Sarcoma 180; 1 × 320 mg/kg,67%
same,Tumor Weight,solid Sarcoma 180; 1 × 320 mg/kg,"0,79 ± 0,28 g"
same,T/C,solid Sarcoma 180; 3 × 200 mg/kg,106%
same,Tumor Weight,solid Sarcoma 180; 3 × 200 mg/kg,"1,26 ± 0,30 g"
same,Toxicity Deaths/Animals Treated,solid Sarcoma 180; 3 × 300 mg/kg,1/5
same,T/C,solid Sarcoma 180; 3 × 300 mg/kg,37%
same,Tumor Weight,solid Sarcoma 180; 3 × 300 mg/kg,"0,44 ± 0,14 g"
Titanocene dibromide [reference compound],ILS (increase in life span),"ascitic Sarcoma 180; 1 × 50 mg/kg, group of 5",61%
same,MST (mean survival time),"ascitic Sarcoma 180; 1 × 50 mg/kg, group of 5","28,4 (22-34) d"
same,ILS (increase in life span),ascitic Sarcoma 180; 1 × 60 mg/kg,128%
same,Survivors/Animals Treated,ascitic Sarcoma 180; 1 × 60 mg/kg,1/5
same,MST (mean survival time),ascitic Sarcoma 180; 1 × 60 mg/kg,"40,2 (20-80) d"
same,T/C,B16 Melanoma; 1 × 60 mg/kg i.p.,42%
same,T/C,B16 Melanoma; 3 × 50 mg/kg i.p.,48%
same,T/C,B16 Melanoma; 3 × 60 mg/kg i.p.,44%
same,T/C,Colon 38 Carcinoma; 1 × 60 mg/kg i.p.,36%
same,T/C,Colon 38 Carcinoma; 3 × 50 mg/kg i.p.,51%
same,T/C (based on mean relative volume of tumor),Rectum Adenocarcinoma; 5 × 20 mg/kg,48%
same,T/C (based on mean relative volume of tumor),Lung Adenocarcinoma; 5 × 20 mg/kg,53%
same,T/C (based on mean relative volume of tumor),[1]; 5 × 20 mg/kg,96%
same,T/C (based on mean relative volume of tumor),Mammary Carcinoma; 5 × 20 mg/kg,44%
same,T/C,solid Sarcoma 180; 1 × 50 mg/kg,108%
same,Tumor Weight,solid Sarcoma 180; 1 × 50 mg/kg,"1,27 ± 0,37 g"
same,T/C,solid Sarcoma 180; 1 × 60 mg/kg,94%
same,Tumor Weight,solid Sarcoma 180; 1 × 60 mg/kg,"1,21 ± 0,37 g"
same,T/C,solid Sarcoma 180; 3 × 50 mg/kg,53%
same,Tumor Weight,solid Sarcoma 180; 3 × 50 mg/kg,"0,69 ± 0,17 g"
same,Toxicity Deaths/Animals Treated,solid Sarcoma 180; 3 × 60 mg/kg,1/5
same,T/C,solid Sarcoma 180; 3 × 60 mg/kg,37%
same,Tumor Weight,solid Sarcoma 180; 3 × 60 mg/kg,"0,48 ± 0,10 g"
titanocene dichloride [reference compound],Optimal Treating Rate,Ehrlich ascites tumor,90-100%
same,Therapeutic Index (LD50/ED90),Ehrlich ascites tumor,"3,3"
same,ILS (increase in life span),"ascitic Sarcoma 180; 1 × 40 mg/kg, group of 5",81%
same,Survivors/Animals Treated,"ascitic Sarcoma 180; 1 × 40 mg/kg, group of 5",1/5
same,MST (mean survival time),"ascitic Sarcoma 180; 1 × 40 mg/kg, group of 5","32,0 (18-80) d"
same,ILS (increase in life span),"ascitic Sarcoma 180; 1 × 40 mg/kg, group of 6",32%
same,MST (mean survival time),"ascitic Sarcoma 180; 1 × 40 mg/kg, group of 6","27,3 (20-49) d"
same,ILS (increase in life span),"ascitic Sarcoma 180; 1 × 50 mg/kg, group of 5",184%
same,Survivors/Animals Treated,"ascitic Sarcoma 180; 1 × 50 mg/kg, group of 5",2/5
same,MST (mean survival time),"ascitic Sarcoma 180; 1 × 50 mg/kg, group of 5","50,0 (25-80) d"
same,ILS (increase in life span),"ascitic Sarcoma 180; 1 × 50 mg/kg, group of 6",161%
same,Survivors/Animals Treated,"ascitic Sarcoma 180; 1 × 50 mg/kg, group of 6",3/6
same,MST (mean survival time),"ascitic Sarcoma 180; 1 × 50 mg/kg, group of 6","54,0 (25-80) d"
same,T/C,B16 Melanoma; 1 × 50 mg/kg i.p.,61%
same,T/C,B16 Melanoma; 3 × 40 mg/kg i.p.,69%
same,T/C,B16 Melanoma; 3 × 50 mg/kg i.p.,37%
same,T/C,Colon 38 Carcinoma; 1 × 50 mg/kg i.p.,41%
same,T/C,Colon 38 Carcinoma; 3 × 40 mg/kg i.p.,28%
same,T/C (based on mean relative volume of tumor),Rectum Adenocarcinoma; 5 × 15 mg/kg,38%
same,T/C (based on mean relative volume of tumor),Lung Adenocarcinoma; 5 × 15 mg/kg,34%
same,T/C (based on mean relative volume of tumor),[1]; 5 × 15 mg/kg,110%
same,T/C (based on mean relative volume of tumor),Mammary Carcinoma; 5 × 15 mg/kg,49%
same,T/C,solid Sarcoma 180; 1 × 40 mg/kg,111%
same,Tumor Weight,solid Sarcoma 180; 1 × 40 mg/kg,"1,31 ± 0,24 g"
same,T/C,solid Sarcoma 180; 1 × 50 mg/kg,66%
same,Tumor Weight,solid Sarcoma 180; 1 × 50 mg/kg,"0,78 ± 0,34 g"
same,T/C,solid Sarcoma 180; 3 × 40 mg/kg,58%
same,Tumor Weight,solid Sarcoma 180; 3 × 40 mg/kg,"0,75 ± 0,32 g"
same,T/C,solid Sarcoma 180; 3 × 50 mg/kg,23%
same,Tumor Weight,solid Sarcoma 180; 3 × 50 mg/kg,"0,29 ± 0,14 g"
